From DBAASP come the findings set out here.

Among the test systems are Bacillus subtilis 168; Escherichia coli B; Pseudomonas aeruginosa; Staphylococcus aureus; Bacillus subtilis; Candida albicans; Escherichia coli; Acinetobacter baumannii; Klebsiella pneumoniae; Escherichia coli UB1005.
Test in all cases: ≥ marks a high value that may be exact or a test limit, other limits are often not marked, values filed in µg/mL are converted to µM
Assay [1] deals with Enterococcus faecalis ATCC 29212.
Assay [2] deals with Escherichia coli ATCC 25922.
The test system of assay [3] is Pseudomonas aeruginosa ATCC 27853.
Assay [4] relates to Salmonella enterica subsp. enterica serovar Typhimurium C77-31.
Assay [5] relates to Staphylococcus aureus ATCC 29213.
The subject of assay [6] is Staphylococcus epidermidis ATCC 12228.
Assay [7] deals with Escherichia coli DH5alpha.
Assay [8] concerns Klebsiella pneumoniae ATCC 13883.
In assay [9] the test system is Salmonella enterica subsp. enterica serovar Typhimurium ATCC 14028.
The subject of assay [10] is Staphylococcus aureus ATCC 25923.
The test system of assay [11] is Acinetobacter baumannii ATCC 19606.
Assay [12] has as its system Staphylococcus aureus ATCC BAA-1556.

≈ marks a conversion by molar mass, not a printed value. Where “and” joins values, the source holds several entries; their conditions need not be identical. Equal entries are not always repeated. A value given as a limit tells only on which side of the number the result lay.

As to `CC[C@H](C)[C@H](NC(=O)[C@H](CC(C)C)NC(=O)[C@H](Cc1cnc[nH]1)NC(=O)CNC(=O)[C@H](CC(C)C)NC(=O)[C@@H](NC(=O)[C@H](CCCCN)NC(=O)[C@H](CO)NC(=O)[C@H](Cc1c[nH]c2ccccc12)NC(=O)[C@H](CCSC)NC(=O)[C@@H](N)CCCCN)[C@@H](C)CC)C(=O)N[C@@H](CCCN=C(N)N)C(N)=O` [KMWSKILGHLIR], the MIC stood at 2.1 µM (≈ 3.11 µg/mL) in the assay with Bacillus subtilis 168, 6.3 µM (≈ 9.33 µg/mL) against Escherichia coli B, 73.3 µM (≈ 109 µg/mL) in the assay on Pseudomonas aeruginosa and 41.7 µM (≈ 61.8 µg/mL) against Staphylococcus aureus.
Take `CC[C@H](C)[C@H](NC(=O)[C@@H]1CCCN1C(=O)[C@H](CCSC)NC(=O)[C@@H](N)Cc1ccccc1)C(=O)N[C@@H](CC(C)C)C(=O)N[C@@H](CO)C(=O)N[C@H]1CSSC[C@@H](C(=O)O)NC(=O)[C@H](CCCN=C(N)N)NC(=O)[C@H](CCCCN)NC(=O)[C@H](Cc2ccccc2)NC(=O)[C@H](CCCN=C(N)N)NC(=O)[C@H](CO)NC1=O` [FMPILSCSRFKRC]: the MIC against Bacillus subtilis came to 23.6 µM (≈ 37.5 µg/mL); against Candida albicans, 0.693 µM (≈ 1.1 µg/mL); against Escherichia coli, 2.95 µM (≈ 4.67 µg/mL); with Staphylococcus aureus, 5.9 µM (≈ 9.36 µg/mL).
Consider `CC(C)C[C@H](NC(=O)[C@H](CCCN=C(N)N)NC(=O)[C@H](CC(N)=O)NC(=O)[C@H](C)NC(=O)[C@H](CCCN=C(N)N)NC(=O)[C@H](CC(C)C)NC(=O)[C@H](Cc1c[nH]c2ccccc12)NC(=O)[C@H](CC(C)C)NC(=O)[C@H](CCCN=C(N)N)NC(=O)[C@H](CCCN=C(N)N)NC(=O)[C@H](CC(C)C)NC(=O)[C@H](CC(C)C)NC(=O)[C@H](CCCN=C(N)N)NC(=O)[C@H](CC(N)=O)NC(=O)[C@H](C)NC(=O)[C@H](CCCN=C(N)N)NC(=O)[C@H](CC(C)C)NC(=O)[C@H](Cc1c[nH]c2ccccc12)NC(=O)[C@H](CC(C)C)NC(=O)[C@H](CCCN=C(N)N)NC(=O)[C@H](CCCN=C(N)N)NC(=O)[C@@H](N)CC(C)C)C(N)=O` [LRRLWLRANRLLRRLWLRANRL], for which the MIC in assay [1] was 2 µM and 4 µM; in assay [2] it was 4 µM (≈ 11.7 µg/mL); in [3], 4 µM (≈ 11.7 µg/mL); in assay [4], 2 µM and 4 µM; in [5] it was 2 µM and 4 µM; in assay [6], 2 µM and 4 µM.
On to `CC[C@H](C)[C@H](NC(=O)[C@H](CC(C)C)NC(=O)[C@H](C)NC(=O)[C@@H]1CCCN1C(=O)[C@H](CC(C)C)NC(=O)CN)C(=O)N[C@@H](CO)C(=O)N[C@@H](Cc1c[nH]c2ccccc12)C(=O)N[C@H](C(=O)N[C@@H](CCCCN)C(=O)N[C@@H](CCCN=C(N)N)C(=O)N[C@@H](CCCCN)C(=O)N[C@@H](CCCN=C(N)N)C(=O)N[C@@H](CC(C)C)C(N)=O)[C@@H](C)CC` [GLPALISWIKRKRL], for which the MIC worked out at 0.394 µM (≈ 0.65 µg/mL) with Bacillus subtilis, 6.9 µM (≈ 11.4 µg/mL) in the assay with Escherichia coli and 1.57 µM (≈ 2.6 µg/mL) in the assay with Staphylococcus aureus.
Turning to `CC[C@H](C)[C@H](N)C(=O)N[C@@H](CC(N)=O)C(=O)N[C@@H](Cc1c[nH]c2ccccc12)C(=O)N[C@@H](CCCCN)C(=O)N[C@@H](CCCCN)C(=O)N[C@H](C(=O)N[C@@H](Cc1ccccc1)C(=O)N[C@@H](CCC(=O)O)C(=O)N[C@@H](CCCCN)C(=O)N[C@H](C(=O)N[C@@H](CCCCN)C(=O)N[C@@H](CC(=O)O)C(=O)N[C@@H](CC(C)C)C(=O)N[C@H](C(N)=O)C(C)C)C(C)C)[C@@H](C)CC` [INWKKIFEKVKDLV], the MIC in the assay on Bacillus subtilis came out at 5 µM (≈ 8.8 µg/mL); in the assay on Escherichia coli, 9 µM (≈ 15.8 µg/mL).
In the case of `CC[C@H](C)[C@@H]1NC(=O)[C@H](CC(C)C)NC(=O)[C@H](CCC(N)=O)NC(=O)[C@H](Cc2ccc(O)cc2)NC(=O)[C@H](C)NC(=O)[C@@H](NC(=O)[C@H](CCCCN)NC(=O)[C@@H](NC(=O)[C@H](CC(C)C)NC(=O)[C@@H](NC(=O)[C@H](Cc2ccccc2)NC(=O)[C@H](CC(C)C)NC(=O)CN)[C@@H](C)O)[C@@H](C)CC)CSSC[C@@H](C(=O)N[C@@H](CC(N)=O)C(=O)O)NC(=O)[C@H](C)NC(=O)[C@H](C(C)C)NC(=O)[C@H]([C@@H](C)O)NC(=O)[C@@H]2CCCN2C(=O)[C@H](C)NC1=O` [GLFTLIKCAYQLIAPTVACN], the MIC was 16.6 µM (≈ 35.6 µg/mL) against Bacillus subtilis, 4.16 µM (≈ 8.89 µg/mL) in the assay with Candida albicans, 16.6 µM (≈ 35.6 µg/mL) with Escherichia coli and 8.32 µM (≈ 17.8 µg/mL) in the assay on Staphylococcus aureus.
As to `CC[C@H](C)[C@H](NC(=O)CN)C(=O)NCC(=O)N[C@@H](CCCCN)C(=O)N[C@@H](Cc1ccccc1)C(=O)N[C@@H](CC(C)C)C(=O)N[C@@H](CCCCN)C(=O)N[C@@H](CCCCN)C(=O)N[C@@H](C)C(=O)N[C@@H](CCCCN)C(=O)N[C@@H](CCCCN)C(=O)NCC(=O)N[C@H](C(=O)NCC(=O)N[C@@H](C)C(=O)N[C@H](C(=O)N[C@@H](CC(C)C)C(=O)N[C@@H](CCCCN)C(=O)N[C@H](C(=O)N[C@@H](CC(C)C)C(=O)N[C@H](C(=O)N[C@H](C(=O)NCC(=O)N[C@@H](CC(C)C)C(=O)O)[C@@H](C)O)[C@@H](C)O)C(C)C)C(C)C)[C@@H](C)CC` [GIGKFLKKAKKGIGAVLKVLTTGL], the MIC against Bacillus subtilis was 4 µM (≈ 9.76 µg/mL); in assay [1], 64 µM (≈ 156 µg/mL); in assay [7] it was 1 µM (≈ 2.44 µg/mL); in assay [8], 1 µM (≈ 2.44 µg/mL); in assay [3], 2 µM (≈ 4.88 µg/mL); in [9], 2 µM (≈ 4.88 µg/mL). In assay [10], this compound came in with an MIC of 2 µM (≈ 4.88 µg/mL).
As to `CC[C@H](C)[C@H](NC(=O)[C@@H](N)CCCCN)C(=O)N[C@@H](C)C(=O)N[C@@H](CC(C)C)C(=O)N[C@@H](CCCCN)C(=O)N[C@@H](C)C(=O)N[C@@H](CC(C)C)C(=O)N[C@@H](CCCCN)C(=O)N[C@@H](C)C(=O)N[C@@H](CC(C)C)C(=O)N[C@@H](CCCCN)C(=O)N[C@@H](C)C(=O)N[C@@H](CC(C)C)C(=O)NCC(=O)N[C@@H](CCCCN)C(=O)N[C@@H](C)C(=O)N[C@@H](CC(C)C)C(=O)N[C@@H](CCCCN)C(=O)N[C@@H](C)C(=O)N[C@@H](CC(C)C)C(N)=O` [KIALKALKALKALGKALKAL], the MIC in assay [11] is 2 µM (≈ 4.12 µg/mL); against Acinetobacter baumannii, 22.6 µM (≈ 46.7 µg/mL); in [2] it was 1.41 µM (≈ 2.92 µg/mL); against Escherichia coli, 32 µM (≈ 66 µg/mL); in assay [8] it was 2.83 µM (≈ 5.83 µg/mL); in the assay with Klebsiella pneumoniae, 22.6 µM (≈ 46.7 µg/mL). For the same compound, the MIC in [3] is 11.3 µM (≈ 23.3 µg/mL); against Pseudomonas aeruginosa, 32 µM (≈ 66 µg/mL); in assay [10], 4 µM (≈ 8.25 µg/mL); in the assay with Staphylococcus aureus, 2.83 µM (≈ 5.83 µg/mL).
In [12], `CC[C@H](C)[C@H](NC(=O)[C@H](Cc1c[nH]c2ccccc12)NC(=O)[C@@H](N)CCCN=C(N)N)C(=O)N[C@@H](CCCN=C(N)N)C(=O)N[C@@H](Cc1c[nH]c2ccccc12)C(=O)N[C@@H](CC(C)C)C(N)=O` [RWIRWL] yielded an MIC not below 100 µM.
Regarding `CC[C@H](C)[C@H](NC(=O)[C@H](CC(C)C)NC(=O)[C@H](C)NC(=O)[C@@H]1CCCN1C(=O)[C@H](CO)NC(=O)CN)C(=O)N[C@@H](CO)C(=O)N[C@@H](Cc1c[nH]c2ccccc12)C(=O)N[C@H](C(=O)N[C@@H](CCCCN)C(=O)N[C@@H](CCCN=C(N)N)C(=O)N[C@@H](CCCCN)C(=O)N[C@@H](CCCN=C(N)N)C(=O)N[C@@H](CCC(N)=O)C(=O)N[C@@H](CCC(N)=O)C(N)=O)[C@@H](C)CC` [GSPALISWIKRKRQQ], the MIC was not below 38.2 µM in the assay with Bacillus subtilis, more than 153 µM against Escherichia coli and 50.9 µM (≈ 90 µg/mL) with Staphylococcus aureus.
In assay [12], `CC(C)C[C@H](NC(=O)[C@H](CC(C)C)NC(=O)[C@H](CCCCN)NC(=O)[C@H](CC(C)C)NC(=O)[C@H](CC(C)C)NC(=O)[C@H](Cc1c[nH]c2ccccc12)NC(=O)[C@H](CCCCN)NC(=O)[C@@H](N)CC(C)C)C(N)=O` [LKWLLKLL] showed an MIC of 12.5 µM (≈ 12.8 µg/mL). That is a double-digit micromolar value.
Still for that read-out and setting: then `CC[C@H](C)[C@H](NC(=O)[C@H](Cc1c[nH]c2ccccc12)NC(=O)[C@H](C)NC(=O)[C@H](CCCN=C(N)N)NC(=O)[C@H](Cc1c[nH]c2ccccc12)NC(=O)[C@@H](N)CCCCN)C(=O)N[C@@H](CCCN=C(N)N)C(=O)N[C@@H](Cc1c[nH]c2ccccc12)C(=O)N[C@@H](CC(C)C)C(N)=O` [KWRAWIRWL], with 12.5 µM (≈ 16.4 µg/mL).
Consider `CC(C)C[C@H](NC(=O)[C@H](CCCN=C(N)N)NC(=O)[C@H](Cc1c[nH]c2ccccc12)NC(=O)[C@H](CCCN=C(N)N)NC(=O)[C@@H](NC(=O)[C@H](CCCCN)NC(=O)[C@H](Cc1c[nH]c2ccccc12)NC(=O)[C@H](CCCN=C(N)N)NC(=O)[C@H](CC(C)C)NC(=O)[C@H](Cc1c[nH]c2ccccc12)NC(=O)[C@@H](N)CCCN=C(N)N)[C@@H](C)O)C(=O)N[C@@H](CCCCN)C(N)=O` [RWLRWKTRWRLK], for which the MIC in assay [2] is 2 µM (≈ 3.57 µg/mL); with Escherichia coli UB1005, 4 µM (≈ 7.14 µg/mL); in [4], 8 µM (≈ 14.3 µg/mL); in assay [10], 16 µM (≈ 28.5 µg/mL); in [5] it was 4 µM (≈ 7.14 µg/mL); in [6], 16 µM (≈ 28.5 µg/mL).

As usually defined, the MIC is the lowest concentration that inhibits growth of the organism. Low values mean inhibition by little substance, high ones a need for much substance.
